Assays:
Assay in all cases: MIC assay, microtitre broth dilution
Assay type in all cases: cell-based
S. pyogenes C721 = S. pyogenes C721 wt, Gram +; Todd Hewitt broth, 37° C., 24 h
Procedure: (§1) MIC assays were conducted essentially as described by Amsterdam, D. 1996, “Susceptibility testing of antimicrobials in liquid media,” p. 52-111. In Loman, V., ed. Antibiotics in Laboratory Medicine, 4th ed. Williams and Wilkins, Baltimore, Md. Briefly, a variety of compounds were tested for antibacterial activity against isolates of P. aeruginosa, K. pneumoniae , E. coli, S. epidermidus, and S. aureus in the MIC (minimum inhibitory concentration) assay under aerobic conditions using 96 well polystyrene microtitre plates (Falcon 1177), and Mueller Hinton broth at 37° C. incubated for 24 h. (MHB was used for most testing except C721 (S. pyogenes), which used Todd Hewitt broth, and Haemophilus influenzae, which used Haemophilus test medium (HTM)). Tests were conducted in triplicate.

[1] = tested on: K. pneumoniae ATCC13883 C238; conditions: K. pneumoniae ATCC13883 C238 wt, Gram −; Mueller Hinton broth, 37° C., 24 h
Procedure: as §1

S. aureus ATCC25923 C622 = S. aureus ATCC25923 C622 wt, Gram +; Mueller Hinton broth, 37° C., 24 h
Procedure: as §1

S. epidermidis C621 = S. epidermidis C621 wt, Gram +; Mueller Hinton broth, 37° C., 24 h
Procedure: as §1

E. Coli UB1005 C498 = E. Coli UB1005 C498 wt, Gram −; Mueller Hinton broth, 37° C., 24 h
Procedure: as §1

[2] = tested on: P. aeruginosa PAE/K799 H187; conditions: P. aeruginosa PAE/K799 H187 wt, Gram −; Mueller Hinton broth, 37° C., 24 h
Procedure: as §1

Molecule	Minimum inhibitory concentration (S. pyogenes C721)	Minimum inhibitory concentration [1]	Minimum inhibitory concentration (S. aureus ATCC25923 C622)	Minimum inhibitory concentration (S. epidermidis C621)	Minimum inhibitory concentration (E. Coli UB1005 C498)	Minimum inhibitory concentration [2]
Sc1ncc2[nH]cnc2n1 [2-mercaptopurine]	N	N	N	N	N	N
O=c1[nH]cc(F)c(=O)[nH]1 [5-fluorouracil]	10^−4 molar	10^−6 molar	10^−7 molar	10^−7 molar	10^−6 molar	10^−5 molar
Sc1ncnc2nc[nH]c12 [6-mercaptopurine]	N	N	N	N	N	N
Nc1ccn([C@@H]2O[C@H](CO)[C@@H](O)[C@@H]2O)c(=O)n1 [Cytarabine]	N	N	N	N	N	N
CC[C@@]1(O)C(=O)OCc2c1cc1n(c2=O)Cc2cc3ccccc3nc2-1 [camptothecin]	N	N	N	10^−4 molar	N	N
COc1cccc2c1C(=O)c1c(O)c3c(c(O)c1C2=O)C[C@@](O)(C(=O)CO)C[C@@H]3O[C@H]1C[C@H](N)[C@H](O)[C@H](C)O1 [doxorubicin]	10^−7 molar	10^−6 molar	10^−5 molar	10^−6 molar	10^−4 molar	10^−5 molar
COc1cc([C@@H]2c3cc4c(cc3[C@@H](O[C@@H]3O[C@@H]5CO[C@@H](C)O[C@H]5[C@H](O)[C@H]3O)[C@H]3COC(=O)[C@H]23)OCO4)cc(OC)c1O [etoposide]	10^−5 molar	10^−5 molar	10^−5 molar	10^−6 molar	N	N
NC(=O)NO [hydroxyurea]	10^−4 molar	N	N	N	N	10^−4 molar
CN(Cc1cnc2nc(N)nc(N)c2n1)c1ccc(C(=O)N[C@@H](CCC(=O)O)C(=O)O)cc1 [methotrexate]	10^−6 molar	10^−6 molar	10^−5 molar	N	N	N
O=C1c2c(O)ccc(O)c2C(=O)c2c(NCCNCCO)ccc(NCCNCCO)c21 [mitoxantrone]	10^−6 molar	10^−6 molar	10^−5 molar	10^−5 molar	10^−5 molar	10^−5 molar
Nc1ncnc2c1ccn2[C@@H]1O[C@H](CO)[C@@H](O)[C@H]1O [tubercidin]	N	N	N	N	N	N
cisplatin	N	N	N	N	N	10^−4 molar

— patent US20110264139A1, “SUTURES AND FIBROSING AGENTS” (Angiotech Pharmaceuticals, Inc., priority 2006, published 2011)
